# Data reported in US9896423B2, “Deuterium substituted 1-[2-(2,4-dimethyl-phenylsulfanyl)-phenyl]piperazine compound or derivatives thereof, and pharmaceutical composition and use thereof” (Jiangsu Jibeier Pharmaceutical Co. Ltd., priority 2014, dated 2018).
# Values joined by “and” are separate entries in the source; they are usually repeats but may differ in a detail not shown here. Equal values may be shown once. Where a name gives a salt, the structure may show the parent alone. Read-outs that look alike come from different tables or passages of the source.
# Test: Pharmacokinetic test in rats, intravenous injection
# Format: in vivo, SD rats
# Conditions: for Concentrations in Plasma of Rats after Intravenous Injection / concentration at 0.05 h / concentration at 0.133 h / concentration at 4 h / concentration at 6 h / concentration at 9 h / concentration at 12 h / concentration at 24 h: 2 mg/kg iv; for concentration at 0.05 h / concentration at 0.133 h / concentration at 4 h / concentration at 6 h / concentration at 9 h / concentration at 12 h / concentration at 24 h: intravenous
# Experimental: The preferred compound of the present disclosure was assessed in rats for its pharmacokinetic profile.
# SD rats, male and female, weighing 150 to 250 g
# Mobile phase: 10 mM ammonium formate aqueous solution:methanol=15:85
# The ionization source was electrospray ionization source. The detection mode was positive mode. Multiple reaction monitoring (MRM) was used as the scanning mode. The ion reaction for the quantitative analysis was the following: m/z was 305.2\150.0 for XX, and 256.1\167.1 for diphenhydramine (the internal standard).
# Four male SD rats were taken. The dosage was calculated as 5 mL/kg body weight and 2 mg/kg. XX or YY was dissolved in DMSO (3% of a total volume) and castor oil (3% of the total volume) was added to the solution, followed by agitating with a vortex mixer. Subsequently, saline was added to the mixture to the total volume to afford the intravenous injection for the rats. The injections were intravenously administered to four male SD rats. Blood from the rats' orbits was collected 3 min, 8 min, 15 min, 30 min, 1 hr, 2 hr, 3 hr, 4 hr, 6 hr, 9 hr, 12 hr and 24 hr later after the injection, respectively.
# After the blood collection, the tubes were immediately gently turned upside down at least five times to ensure sufficient mixing, and placed on ice. Heparin was added for anticoagulation. The samples were centrifuged at 8000 rpm for 5 min to separate serum from erythrocyte. The serum was transferred with a pipettor to 2 mL polypropylene (PP) tubes, which were marked with the name of the compound and the time points, and stored in a refrigerator at −40° C. before LC-MS analysis. Samples with high concentrations were diluted with rat blank plasma.
# 2.5 μL of Meth-H2O and 5 μL of the internal standard solution (20 ng/mL, IS) were added to 50 μL of the plasma. Subsequently, 150 μL of methanol was added to the mixture to precipitate protein and the samples were then centrifuged at 13000 rpm for 5 min. The upper organic phase was taken out, filtrated with a 0.22 μM microporous membrane, and 2 μL of the sample was injected for the LC-MS analysis.
compound,measurement,setting,value
"[2H]C([2H])([2H])c1ccc(Sc2ccccc2N2CCNCC2)c(C([2H])([2H])[2H])c1 [XX, 1-{2-[2,4-bis(trideuteriomethyl)phenylsulfanyl]phenyl}piperazine hydrobromic acid salt]",Concentrations in Plasma of Rats after Intravenous Injection,"0.05 h after administration, individual rats",123.2 ng/mL and 127.2 ng/mL and 121.4 ng/mL
same,Concentrations in Plasma of Rats after Intravenous Injection,"0.133 h, individual rats",89.0 ng/mL and 85.9 ng/mL and 86.8 ng/mL
same,Concentrations in Plasma of Rats after Intravenous Injection,"0.25 h, individual rats",78.8 ng/mL and 77.3 ng/mL and 77.1 ng/mL
same,Concentrations in Plasma of Rats after Intravenous Injection,"0.5 h, individual rats",76.9 ng/mL and 71.3 ng/mL and 75.8 ng/mL
same,Concentrations in Plasma of Rats after Intravenous Injection,"1 h, individual rats",73.3 ng/mL and 68.6 ng/mL and 65.6 ng/mL
same,Concentrations in Plasma of Rats after Intravenous Injection,"2 h, individual rats",69.5 ng/mL and 68.1 ng/mL and 54.4 ng/mL
same,Concentrations in Plasma of Rats after Intravenous Injection,"3 h, individual rats",53.4 ng/mL and 49.8 ng/mL and 38.2 ng/mL
same,Concentrations in Plasma of Rats after Intravenous Injection,"4 h, individual rats",38.5 ng/mL and 27.6 ng/mL and 25.1 ng/mL
same,Concentrations in Plasma of Rats after Intravenous Injection,"6 h, individual rats",28.4 ng/mL and 25.8 ng/mL and 24.5 ng/mL
same,Concentrations in Plasma of Rats after Intravenous Injection,"9 h, individual rats",16.1 ng/mL and 18.6 ng/mL and 14.1 ng/mL
same,Concentrations in Plasma of Rats after Intravenous Injection,"12 h, individual rats",7.86 ng/mL and 7.50 ng/mL and 7.18 ng/mL
same,Concentrations in Plasma of Rats after Intravenous Injection,"24 h, individual rats",2.57 ng/mL and 2.89 ng/mL and 3.68 ng/mL
same,concentration at 0.05 h,"male, SD, rat, plasma, 2 mg/kg, 0.05 h, mean, read-out: Concentrations in Plasma of Rats after Intravenous Injection, Mean ± SD",126 ± 5.68 ng/mL
same,concentration at 0.05 h,"male, SD, rat, plasma, 2 mg/kg, 0.05 h after administration, individual rats, read-out: Concentrations in Plasma of Rats after Intravenous Injection",134 ng/mL
same,concentration at 0.133 h,"male, SD, rat, plasma, 2 mg/kg, 0.133 h, individual rats, read-out: Concentrations in Plasma of Rats after Intravenous Injection",86.5 ng/mL
same,concentration at 0.133 h,"male, SD, rat, plasma, 2 mg/kg, 0.133 h, mean, read-out: Concentrations in Plasma of Rats after Intravenous Injection, Mean ± SD",87.1 ± 1.35 ng/mL
same,concentration at 4 h,"male, SD, rat, plasma, 2 mg/kg, 4 h, individual rats, read-out: Concentrations in Plasma of Rats after Intravenous Injection",27.2 ng/mL
same,concentration at 4 h,"male, SD, rat, plasma, 2 mg/kg, 4 h, mean, read-out: Concentrations in Plasma of Rats after Intravenous Injection, Mean ± SD",29.6 ± 6.03 ng/mL
same,concentration at 6 h,"male, SD, rat, plasma, 2 mg/kg, 6 h, individual rats, read-out: Concentrations in Plasma of Rats after Intravenous Injection",25.8 ng/mL
same,concentration at 6 h,"male, SD, rat, plasma, 2 mg/kg, 6 h, mean, read-out: Concentrations in Plasma of Rats after Intravenous Injection, Mean ± SD",26.1 ± 1.64 ng/mL
same,concentration at 9 h,"male, SD, rat, plasma, 2 mg/kg, 9 h, individual rats, read-out: Concentrations in Plasma of Rats after Intravenous Injection",14.9 ng/mL
same,concentration at 9 h,"male, SD, rat, plasma, 2 mg/kg, 9 h, mean, read-out: Concentrations in Plasma of Rats after Intravenous Injection, Mean ± SD",15.9 ± 1.96 ng/mL
same,concentration at 12 h,"male, SD, rat, plasma, 2 mg/kg, 12 h, individual rats, read-out: Concentrations in Plasma of Rats after Intravenous Injection",8.44 ng/mL
same,concentration at 12 h,"male, SD, rat, plasma, 2 mg/kg, 12 h, mean, read-out: Concentrations in Plasma of Rats after Intravenous Injection, Mean ± SD",7.75 ± 0.54 ng/mL
same,concentration at 24 h,"male, SD, rat, plasma, 2 mg/kg, 24 h, individual rats, read-out: Concentrations in Plasma of Rats after Intravenous Injection",3.38 ng/mL
same,concentration at 24 h,"male, SD, rat, plasma, 2 mg/kg, 24 h, mean, read-out: Concentrations in Plasma of Rats after Intravenous Injection, Mean ± SD",3.13 ± 0.5 ng/mL
same,AUC(0-inf),"male, SD, rat, plasma, iv, 2 mg/kg, rats, iv 2 mg/kg, XX n = 4, YY n = 3, read-out: AUC0-∞, Mean ± SD",482 ± 23.6 ng·h/mL
same,Cmax,"male, SD, rat, plasma, iv, 2 mg/kg, rats, iv 2 mg/kg, XX n = 4, YY n = 3, read-out: Cmax, Mean ± SD",126 ± 5.68 ng/mL
same,MRT inf,"male, SD, rat, plasma, iv, 2 mg/kg, rats, iv 2 mg/kg, XX n = 4, YY n = 3, read-out: MRT0-∞, Mean ± SD",6.87 ± 0.84 h
same,Vd,"male, SD, rat, plasma, iv, 2 mg/kg, rats, iv 2 mg/kg, XX n = 4, YY n = 3, read-out: Vz, Mean ± SD",32.9 ± 9.76 L/kg
